In patent EP1004317A1, “REMEDIES FOR DISEASES ASSOCIATED WITH BONE RESORPTION” (CHUGAI SEIYAKU KABUSHIKI KAISHA, priority 1997, dated 1999):
Counter-ions that a name gives are not always drawn. Marks after values point to notes of the source that are not given here.

Assays:
[1] = system: ovariectomized rats; experiment: Effect on ovariectomized rats: biochemical parameter of urine (bone resorption marker); type: in vivo, Female Wistar-Imamichi rats; conditions: for D-pyr/Cre: OVX rats, urine collected after the final administration, mean ± standard deviation, n = 7, control OVX 11.83 ± 2.02
Description: (§1) Female Wistar-Imamichi rats were subjected to ovariectomy (OVX). As test drugs, use was made of L-N-6-(1-iminoethyl)lysine hydrochloride (NIL) and S-ethylisothiourea (EIT) which are known as selective iNOS inhibitors. […] To confirm the validity of the test system, 17-β-estradiol (βE2) was also employed.
(§2) One day after OVX, the rats were divided into 7 groups each having 7 animals. The administration of the drug was started on the day 4 after OVX. As a control, a sham group (7 animals) was also employed. NIL was orally administered in a dose of 0.1 or 0.02 mg/kg (0.1 ml per 100 g of body weight) 5 times per week for 10 weeks.
According to Dunnet's multiple comparison method, the statistically significant differences from the control ovariectomy group are expressed as follows: **: p < 0.01, ***: p < 0.001.
Number of animals/group = 7. Mean ± standard deviation.

[2] = system: ovariectomized rats; experiment: Effect on ovariectomized rats: lumbar bone density; type: in vivo, Female Wistar-Imamichi rats; conditions: sham group = 100%, control OVX group 85.2%
Description: as §1, §2
In this graph, the data are expressed in "mean ± standard deviation". According to Dunnet's multiple comparison method, the statistically significant differences from the control ovariectomy group are expressed as follows: • **: p < 0.01, ***: p < 0.001.

[3] = system: cNOS/iNOS; conditions: cited from earlier work
[4] = system: eNOS/iNOS; conditions: cited from earlier work
[5] = system: nNOS/iNOS; conditions: cited from earlier work

CC(=N)NCCCC[C@H](N)C(=O)O [NIL, L-N-6-(1-iminoethyl)lysine hydrochloride]
excretion of deoxypyridinoline (D-pyr), acceleration versus control OVX group (in words) ([1]; 0.02 mg/kg, p < 0.01): significantly inhibited | D-pyr/Cre ([1]; dose 0.02 mg/kg): 8.70 ± 1.59** | D-pyr/Cre ([1]; dose 0.1 mg/kg): 10.43 ± 1.15 | lumber bone density ([2]; 0.02 mg/kg orally, 5 times per week for 10 weeks): 86.8% | lumber bone density ([2]; 0.1 mg/kg orally, 5 times per week for 10 weeks): 90.2% | cNOS/iNOS (NOS inhibitory activity expressed in the ratio of IC50) [3]: 28

C[C@]12CC[C@@H]3c4ccc(O)cc4CC[C@H]3[C@@H]1CC[C@@H]2O [βE2, 17-β-estradiol]
D-pyr/Cre ([1]; dose 0.02 mg/kg): 4.16 ± 1.45**

CCSC(=N)N [EIT, S-ethylisothiourea]
excretion of deoxypyridinoline (D-pyr) versus control OVX group (in words) ([1]; EIT administration group, no statistically significant difference): a tendency toward decrease | D-pyr/Cre ([1]; dose 0.1 mg/kg): 9.95 ± 1.71 | lumber bone density ([2]; EIT administration group, 24 hours after the final administration, p < 0.01): 92.6% | eNOS/iNOS (NOS inhibitory activity expressed in the ratio of IC50) [4]: 28.46 | nNOS/iNOS (NOS inhibitory activity expressed in the ratio of IC50) [5]: 19.23
